Here are results for 2 compounds from patent US6001389A, “Compositions containing biologically active silicon” (priority 1997, dated 1999).

One assay has as its system desquamine. Briefly: desquamine-like activity of an epidermic extract (hydrolysis of synthetic specific substrate of tPA). The format is biochemical. On the procedure:
Effect of a diethylphosphatoethyltrisilanol's precursor, the diethylphosphatoethyltriethoxysilane, on the "desquame-like" activity of an epidermic extract.
Desquamine is obtained from an epidermic extract according to the Brysk and al (1994) method. The desquamine activity is evaluated by its ability to hydrolyze the synthetic specific substrate of the tPA for which it has a very strong affinity.

In assay [1] the test system is collagenase type activity of human chondrocytes. Briefly: collagenase type enzymatic activity of human chondrocytes culture (Cawston and Barrett method). The format is cell-based. The following applies: no IL-1. On the procedure:
Effect of a diethylphosphatoethyltrisilanol's precursor, the diethylphosphatoethyltriethoxysilane, on the collagenase type activity of human chondrocytes culture.
Chondrocytes cultures are carried out from human cartilages sampled on cadavers 12 hours after the death. In aqueous buffered medium (pH 7.0-7.4), the diethylphosphatoethyltriethoxysilane releases the corresponding diethylphosphatoethyltrisilanol, which is the active silanol. The collagenase type enzymatic activity of these chondrocytes cultures is quantified following the Cawston and Barrett method.

Assay [2] has the same test system. Briefly: collagenase type enzymatic activity of human chondrocytes cultures after IL-1 induction (Cawston and Barrett method). The format is cell-based. The following applies: after IL-1 treatment. As for the experimental part:
Effect of a diethylphosphatoethyltrisilanol's precursor, the diethylphosphatoethyltriethoxysilane, on the collagenase type activity of human chondrocytes cultures after IL-1 induction.
Chondrocytes cultures are carried out from human cartilages sampled on cadavers 12 hours after the death. In aqueous buffered medium (pH 7.0-7.4), the diethylphosphatoethyltriethoxysilane releases the corresponding diethylphosphatoethyltrisilanol, which is the active silanol. The collagenase type enzymatic activity of these chondrocytes cultures is quantified following the Cawston and Barrett method after previous treatment of the cultures by IL-1.

Assay [3] deals with chymotrypsine-like activity of epidermic extract. Briefly: chymotrypsine-like activity of an epidermic extract (BTEE degradation). The format is biochemical. On the procedure: Effect of a diethylphosphatoethyltrisilanol's precursor, the diethylphosphatoethyltriethoxysilane, on the chymotrypsine type activity of an epidermic extract.
After sampling from a cutaneous tissue, the epidermis is cut then put in an appropriate buffered solution. The solution is homogenized with Ultra Turax (40 C.) until a satisfying epidermic extract is obtained. The chymotrypsine-like activity of this extract is assessed by the measure of the N alpha-Benzoyl-L-Tyrosine Ethyl Ester (BTEE) degradation (specific synthetic substrate).

For assay [4], the system named is stromelysine type activity of human chondrocytes. Briefly: stromelysine type enzymatic activity of human chondrocytes culture (digestion of casein coupled with resorufine). The following applies: no IL-1. It counts as cell-based. On the procedure: Effect of a diethylphosphatoethyltrisilanol's precursor, the diethylphosphatoethyltriethoxysilane, on the stromelysine type activity of human chondrocytes culture.
Chondrocytes cultures are carried out from human cartilages sampled on cadavers 12 hours after the death. In aqueous buffered medium (pH 7.0-7.4), the diethylphosphatoethyltriethoxysilane releases the corresponding diethylphosphatoethyltrisilanol, which is the active silanol. The stromelysine type enzymatic activity of these chondrocytes cultures is quantified by the method of digestion of casein coupled with resorufine.

Assay [5] concerns osteoblasts alkaline phosphatase. Briefly: synthetic activity of osteoblasts (alkaline phosphatase activity). It counts as cell-based, human. On the procedure: Effect of a diethylphosphatoethyltrisilanol's precursor, the diethylphosphatoethyltriethoxysilane, on the synthetic activity of osteoblasts.
Osteoblasts cultures are carried out from human bones sampled on cadavers 12 hours after the death. In aqueous buffered medium (pH 7.0-7.4), the diethylphosphatoethyltriethoxysilane releases the corresponding diethylphosphatoethyltrisilanol, which is the active silanol. The synthetic activity of these osteoblasts is quantified by the measure of the alkaline phosphatase activity.

The subject of assay [6] is stromelysine type activity of human chondrocytes. Briefly: stromelysine type enzymatic activity of human chondrocytes culture after IL-1 induction (digestion of casein coupled with resorufine). It counts as cell-based. The following applies: after IL-1 treatment. As for the experimental part: Effect of a diethylphosphatoethyltrisilanol's precursor, the diethylphosphatoethyltriethoxysilane, on the stromelysine type activity of human chondrocytes culture after IL-1 induction.
Human chondrocytes cultures are carried out from human cartilages sampled on cadavers 12 hours after the death. In aqueous buffered medium (pH 7.0-7.4), the diethylphosphatoethyltriethoxysilane releases the corresponding diethylphosphatoethyltrisilanol, which is the active silanol. The stromelysine type enzymatic activity of these chondrocytes cultures is quantified, after previous treatment of cultures with IL-1, by the method of digestion of casein coupled with resorufine.

The next assay deals with IL-6 of osteoblasts. Briefly: IL-6 level of osteoblasts (ELISA). It counts as cell-based, human. On the procedure:
Effect of a diethylphosphatoethyltrisilanol's precursor, the diethylphosphatoethyltriethoxysilane, on the IL-6 activity of osteoblasts.
Osteoblasts cultures are carried out from human bones sampled on cadavers 12 hours after the death. In aqueous buffered medium (pH 7.0-7.4), the diethylphosphatoethyltriethoxysilane releases the corresponding diethylphosphatoethyltrisilanol, which is the active silanol. IL-6 is quantified by the ELISA technique.

`C[Si](O)(O)O` [CH3 Si(OH)3]: the “effect on "desquamine-like" activity of the epidermic extract, in words” value in the assay with desquamine is listed as “dose-dependent inhibition”. The “inhibition of the "desquamine-like" activity of the epidermic extract” value with desquamine (300 μg/ml) was 25%.
On to `CCOP(=O)(CC[Si](O)(O)O)OCC` [diethylphosphatoethyltrisilanol], for which the “inhibition of "collagenase-like" activity of the chondrocytes” value in assay [1] (500 μg/ml) is reported as 30%; in assay [2] (500 μg/ml) it was 21%. The “effect on "collagenase-like" activity of the chondrocytes, in words” value in assay [1] and in assay [2] was “dose-dependent decrease” in each case. Further, in assay [3], the “effect on "chymotrypsine-like" activity of the epidermic extract, in words” value is “dose-dependant decrease”. In addition, the “inhibition of "chymotrypsine-like" activity of the epidermic extract” value in assay [3] (400 μg/ml (printed 400 μ0 g/ml)) is on record as 27%. In addition, the “inhibition of "collagenase-like" activity of the chondrocytes (stromelysine type activity test)” value in assay [4] (500 μg/ml) was 37%; in assay [6] (500 μg/ml), 18%. The “effect on "collagenase-like" activity of the chondrocytes (stromelysine type activity test), in words” value in assay [4] and in assay [6] was “dose-dependent decrease” in each case. Further, the “effect on osteoblasts alkaline phosphatases activity, in words” value in assay [5] is reported as “dose-dependent increase”. Besides, the “increase of the osteoblasts alkaline phosphatases activity (printed "inhibition")” value in assay [5] (100 μg/ml) is “+24%”. In addition, in the assay with IL-6 of osteoblasts, the “effect on osteoblasts IL-6 level, in words” value is given as “dose-dependent decrease”. Also, in the assay on IL-6 of osteoblasts (100 μg/ml), the “decrease of the osteoblasts IL-6 level (inhibition)” value is given as -49%.
